Columns and labels:
late watergrass = assay: Test Example 1: herbicidal activity, application before weed generation under submerged conditions (Table 16, symbol A); assay type: in vivo, late watergrass (Echinochloa oryzicola); conditions: 320 g/ha applied herbicide
Summary of the method: (§1)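 Emulsion formulation, water-diluted to set dose, was put onto the flooded surface (4 cm depth, alluvial soil) the same day weeds were sown and 2.5-leaf rice transplanted. After 3 weeks at 25-30 °C under glass, each species was rated 0 (≤5% kill) to 5 (≥90% kill).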

oval-leafed pondweed = assay: Test Example 1: herbicidal activity, application before weed generation under submerged conditions (Table 16, symbol C); assay type: in vivo, oval-leafed pondweed (Monochoria vaginalis); conditions: 320 g/ha applied herbicide
Summary of the method: as §1

Japanese bulrush = assay: Test Example 2: herbicidal activity, application during weed generation under submerged conditions (Table 17, symbol B); assay type: in vivo, Japanese bulrush (Schoenoplectus juncoides); conditions: AAH 320 g/ha; application during weed generation, submerged conditions
Summary of the method: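 Wagner pot, alluvial soil, 4 cm flood; mixed sowing of all species; greenhouse 25° C.–30° C. Emulsifiable formulation, water-diluted to predetermined dose, applied to paddy water at 1–2 leaf stage. Effect rated at 3 wk using the earlier test's scoring criteria.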

barnyard grass [1] = assay: Test Example 3: herbicidal effect by foliage application, Wagner pot (Table 18, symbol H); assay type: in vivo, barnyard grass (Echinochloa crus-galli); conditions: 320 g/ha
Summary of the method: (§2)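 Plants were sown in alluvial soil held under 0.1–0.5 cm standing water and grown 14 days in a greenhouse at 25–30 °C. An emulsifiable formulation, water-diluted to the set dose, was then sprayed onto the foliage, and effects were scored three weeks later using previously defined criteria.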

rice flat sedge = assay: Test Example 3: herbicidal effect by foliage application, Wagner pot (Table 18, symbol E); assay type: in vivo, rice flat sedge (Cyperus iria); conditions: 320 g/ha
Summary of the method: as §2

green foxtail [2] = assay: Test Example 4: herbicidal effect by soil treatment (Table 19, symbol G); assay type: in vivo, green foxtail (Setaria viridis); conditions: 320 g/ha
Summary of the method: (§3)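 Pre-emergence style soil spray: seeds under ~1.5 cm sterilized diluvial soil received a uniform coat of emulsion diluted to the predetermined herbicide amount. Greenhouse 25–30° C; readout at week three on previously defined criteria.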

barnyard grass [3] = assay: Test Example 4: herbicidal effect by soil treatment (Table 19, symbol H); assay type: in vivo, barnyard grass (Echinochloa crus-galli); conditions: 320 g/ha
Summary of the method: as §3

velvetleaf = assay: Test Example 4: herbicidal effect by soil treatment (Table 19, symbol M); assay type: in vivo, velvetleaf (Abutilon theophrasti); conditions: 320 g/ha
Summary of the method: as §3

redroot pigweed [4] = assay: Test Example 4: herbicidal effect by soil treatment (Table 19, symbol N); assay type: in vivo, redroot pigweed (Amaranthus retroflexus); conditions: 320 g/ha
Summary of the method: as §3

chickweed [5] = assay: Test Example 4: herbicidal effect by soil treatment (Table 19, symbol P); assay type: in vivo, common chickweed (Stellaria media); conditions: 320 g/ha
Summary of the method: as §3

southern crabgrass = assay: Test Example 5: herbicidal effect by foliage application, plastic box (Table 20, symbol F); assay type: in vivo, southern crabgrass (Digitaria ciliaris); conditions: foliage application, 320 g/ha; for effect on southern crabgrass (F): 3 weeks after application
Summary of the method: (§4)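 Plants were sown into sterilized diluvial soil under about 1.5 cm cover and kept in a greenhouse at 25° C. to 30° C. Fourteen days on, foliage received an even spray of the diluted emulsion. Herbicidal or crop effect was judged three weeks afterwards.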

green foxtail [6] = assay: Test Example 5: herbicidal effect by foliage application, plastic box (Table 20, symbol G); assay type: in vivo, green foxtail (Setaria viridis); conditions: foliage application, 320 g/ha; for effect on green foxtail (G): 3 weeks after application
Summary of the method: as §4

blackgrass = assay: Test Example 5: herbicidal effect by foliage application, plastic box (Table 20, symbol J); assay type: in vivo, blackgrass (Alopecurus myosuroides); conditions: foliage application, 320 g/ha; for effect on blackgrass (J): 3 weeks after application
Summary of the method: as §4

Italian ryegrass = assay: Test Example 5: herbicidal effect by foliage application, plastic box (Table 20, symbol K); assay type: in vivo, Italian ryegrass (Lolium multiflorum); conditions: foliage application, 320 g/ha; for effect on Italian ryegrass (K): 3 weeks after application
Summary of the method: as §4

redroot pigweed [7] = assay: Test Example 5: herbicidal effect by foliage application, plastic box (Table 20, symbol N); assay type: in vivo, redroot pigweed (Amaranthus retroflexus); conditions: foliage application, 320 g/ha, evaluated three weeks after application
Summary of the method: as §4

chickweed [8] = assay: Test Example 5: herbicidal effect by foliage application, plastic box (Table 20, symbol P); assay type: in vivo, common chickweed (Stellaria media); conditions: foliage application, 320 g/ha, evaluated three weeks after application
Summary of the method: as §4

[9] = evaluated three weeks after application

SMILES	Herbicidal effect on A: late watergrass (grade 0-5) (late watergrass)	Herbicidal effect on C: oval-leafed pondweed (grade 0-5) (oval-leafed pondweed)	herbicidal effect rating, B: Japanese bulrush (Japanese bulrush)	herbicidal effect on H (barnyard grass), rating 0-5 (barnyard grass [1])	herbicidal effect on E (rice flat sedge), rating 0-5 (rice flat sedge)	herbicidal effect rating, G: green foxtail (green foxtail [2])	herbicidal effect rating, H: barnyard grass (barnyard grass [3])	herbicidal effect rating, M: velvetleaf (velvetleaf)	herbicidal effect rating, N: redroot pigweed (redroot pigweed [4])	herbicidal effect rating, P: chickweed (chickweed [5])	effect on southern crabgrass (F) (southern crabgrass)	effect on green foxtail (G) (green foxtail [6])	effect on blackgrass (J) (blackgrass)	effect on Italian ryegrass (K) (Italian ryegrass)	herbicidal effect on F: southern crabgrass (southern crabgrass; [9])	herbicidal effect on G: green foxtail (green foxtail [6]; [9])	herbicidal effect on J: blackgrass (blackgrass; [9])	herbicidal effect on K: Italian ryegrass (Italian ryegrass; [9])	herbicidal effect on N: redroot pigweed (redroot pigweed [7])	herbicidal effect on P: chickweed (chickweed [8])
CCCC(=O)Oc1c(C)nn(C)c(=O)c1-c1c(-c2ccc(COC)cc2)sc2ccc(F)cc12 [2-023]	2 (Herbicidal rate of 20% or more and less than 40%)	0 (Herbicidal rate of 5% or less (almost no effect))	0 (Herbicidal rate of 5% or less (almost no effect))	5 (Herbicidal rate of 90% or more (almost completely withered))	5 (Herbicidal rate of 90% or more (almost completely withered))	5 (Herbicidal rate of 90% or more (almost completely withered))	4 (Herbicidal rate of 70% or more and less than 90%)	2 (Herbicidal rate of 20% or more and less than 40%)	5 (Herbicidal rate of 90% or more (almost completely withered))	3 (Herbicidal rate of 40% or more and less than 70%)	5 (Herbicidal rate of 90% or more (almost completely withered))	5 (Herbicidal rate of 90% or more (almost completely withered))	4 (Herbicidal rate of 70% or more and less than 90%)	4 (Herbicidal rate of 70% or more and less than 90%)	–	–	–	–	–	–
Cc1nn(C)c(=O)c(-c2c(-c3ccc(Cl)cc3)sc3ccc(F)cc23)c1O [Compound No. 2-010, 4-(2-(4-chlorophenyl)-5-fluorobenzo[b]thiophen-3-yl)-5-hydroxy-2,6-dimethylpyridazin-3(2H)-one]	3 (Herbicidal rate of 40% or more and less than 70%)	1 (Herbicidal rate of 5% or more and less than 20%)	–	5 (Herbicidal rate of 90% or more (almost completely withered))	5 (Herbicidal rate of 90% or more (almost completely withered))	5 (Herbicidal rate of 90% or more (almost completely withered))	5 (Herbicidal rate of 90% or more (almost completely withered))	5 (Herbicidal rate of 90% or more (almost completely withered))	5 (Herbicidal rate of 90% or more (almost completely withered))	4 (Herbicidal rate of 70% or more and less than 90%)	5 (Herbicidal rate of 90% or more (almost completely withered))	5 (Herbicidal rate of 90% or more (almost completely withered))	3 (Herbicidal rate of 40% or more and less than 70%)	5 (Herbicidal rate of 90% or more (almost completely withered))	–	–	–	–	–	–
CCCOc1ccc(-c2sc3ccc(F)cc3c2-c2c(OC(=O)CCC)c(C)nn(C)c2=O)cc1 [2-033]	4 (Herbicidal rate of 70% or more and less than 90%)	4 (Herbicidal rate of 70% or more and less than 90%)	4 (Herbicidal rate of 70% or more and less than 90%)	5 (Herbicidal rate of 90% or more (almost completely withered))	5 (Herbicidal rate of 90% or more (almost completely withered))	0 (Herbicidal rate of 5% or less (almost no effect))	0 (Herbicidal rate of 5% or less (almost no effect))	3 (Herbicidal rate of 40% or more and less than 70%)	5 (Herbicidal rate of 90% or more (almost completely withered))	4 (Herbicidal rate of 70% or more and less than 90%)	2 (Herbicidal rate of 20% or more and less than 40%)	5 (Herbicidal rate of 90% or more (almost completely withered))	3 (Herbicidal rate of 40% or more and less than 70%)	2 (Herbicidal rate of 20% or more and less than 40%)	–	–	–	–	–	–
Cc1nn(C)c(=O)c(-c2c(-c3ccccc3OC(F)(F)F)sc3ccc(F)cc23)c1O [2-043]	0 (Herbicidal rate of 5% or less (almost no effect))	1 (Herbicidal rate of 5% or more and less than 20%)	2 (Herbicidal rate of 20% or more and less than 40%)	5 (Herbicidal rate of 90% or more (almost completely withered))	5 (Herbicidal rate of 90% or more (almost completely withered))	5 (Herbicidal rate of 90% or more (almost completely withered))	4 (Herbicidal rate of 70% or more and less than 90%)	3 (Herbicidal rate of 40% or more and less than 70%)	5 (Herbicidal rate of 90% or more (almost completely withered))	1 (Herbicidal rate of 5% or more and less than 20%)	4 (Herbicidal rate of 70% or more and less than 90%)	5 (Herbicidal rate of 90% or more (almost completely withered))	–	0 (Herbicidal rate of 5% or less (almost no effect))	–	–	–	–	–	–
COc1cc(F)ccc1-c1sc2ccc(Cl)cc2c1-c1c(O)c(C)nn(C)c1=O [Compound No. 2-095, 4-(5-chloro-2-(4-fluoro-2-methoxyphenyl)benzo[b]thiophen-3-yl)-5-hydroxy-2,6-dimethylpyridazin-3(2H)-one]	2 (Herbicidal rate of 20% or more and less than 40%)	0 (Herbicidal rate of 5% or less (almost no effect))	–	5 (Herbicidal rate of 90% or more (almost completely withered))	5 (Herbicidal rate of 90% or more (almost completely withered))	4 (Herbicidal rate of 70% or more and less than 90%)	4 (Herbicidal rate of 70% or more and less than 90%)	0 (Herbicidal rate of 5% or less (almost no effect))	4 (Herbicidal rate of 70% or more and less than 90%)	3 (Herbicidal rate of 40% or more and less than 70%)	–	–	–	–	4 (Herbicidal rate of 70% or more and less than 90%)	5 (Herbicidal rate of 90% or more (almost completely withered))	4 (Herbicidal rate of 70% or more and less than 90%)	3 (Herbicidal rate of 40% or more and less than 70%)	5 (Herbicidal rate of 90% or more (almost completely withered))	5 (Herbicidal rate of 90% or more (almost completely withered))

From patent US20230085307A1, “PYRIDAZINONE COMPOUND AND HERBICIDE” (NISSAN CHEMICAL CORPORATION, priority 2019, published 2023)
